From a melting point compilation (Tetko et al.; mined from patent text by program, amines drawn as free bases though some values may be those of a salt)
Residues, ends and D or L forms follow the SMILES beside them. *: point of attachment. Boc = CC(C)(C)OC(=O)*; NHNH2 = NN*

First: Cc1ccc(-c2ccccc2-n2c(C)n[nH]c2=O)cc1
Second: Cc1ccc2c3c(c(=O)[nH]c2c1)C(=O)c1ccccc1-3
The melting point of the first is lower: 102 to 104 °C for the first, greater than 290 °C for the second.

First: COc1ccc(C2(C#Cc3csc(C(=O)O)c3)CCC(=O)CC2)cc1OC1CCCC1
Second: COc1cccc(OC)c1-c1cc(C(=O)N[C@H](C(=O)O)C2CCCCC2)nn1-c1ccc(C(N)=O)c2ccccc12
The melting point of the first is lower: 80 to 82 °C for the first, 186 °C for the second.

Compared with `CC(C)C(NC(=O)OCc1ccccn1)C(=O)NC(Cc1ccccc1)C(O)C(O)C(Cc1ccccc1)NC(=O)OC(C)(C)C` (stereo not drawn), `CC(C)(C)OC(=O)Nc1ccnc(NC(=O)NCc2ccccn2)c1` is lower in melting point: 202 to 204 °C for the first, 192 to 193 °C for the second.

First: O=C(O)c1ccc(COc2ccc3cc(-c4ccc(-c5ccccc5)n4-c4ccccc4)ccc3c2)cc1
Second: CC(C)Oc1ccc2nc(COc3ccc(CC4SC(=O)N(C(c5ccccc5)(c5ccccc5)c5ccccc5)C4=O)cc3)n(C)c2n1 (stereo not drawn)
The melting point of the first is higher: 309 to 310 °C for the first, 90 to 100 °C for the second.

First: CC(=O)OCC1OC(n2cc(Cc3ccc(OC(F)(F)F)cc3)c3c(Cl)cccc32)C(OC(C)=O)C(OC(C)=O)C1OC(C)=O (stereo not drawn)
Second: O=C(c1ccc(C(F)(F)F)cc1O)N1CCN(c2ccc(OC[C@H]3CCn4cc([N+](=O)[O-])nc4O3)cc2)CC1
The melting point of the first is lower: 193 to 194 °C for the first, 217 to 220 °C for the second.

First: COc1ccc(Cl)cc1C(=O)NCCc1ccc(-c2ccccn2)c(S(N)(=O)=O)c1
Second: COC(=O)NCc1nc(-c2ccc3c(c2)Nc2ccccc2S3)cs1
The melting point of the first is higher: 202 to 203 °C for the first, 151 to 153 °C for the second.

Compared with `Cn1cncc1C(=O)NCc1cccc2c1C(=O)N(C1CCC(=O)NC1=O)C2=O` (stereo not drawn), `CCN(CC)CCC1CCCCN1CCNC(=O)N1c2ccccc2C(=O)Nc2cccnc21` (stereo not drawn) is lower in melting point: greater than 260 °C for the first, 161 to 162 °C for the second.

First: CC(C)=CC(C)(S)[C@@H](NC=O)C(=O)O (stereo partly drawn)
Second: CC(=O)C(=CNc1cc(Cl)cc(C(=O)O)c1Cl)C(C)=O
The melting point of the first is lower: 183 to 184 °C for the first, 244 to 246 °C for the second.

First: COC(=O)C1C(Sc2ccccc2)CC2CCC1N2C (stereo not drawn)
Second: O=C(O)c1ccccc1Sc1ccc(Cl)cc1
The melting point of the first is lower: 55 to 57 °C for the first, 240 °C for the second.

Compared with `CCN(C(=O)n1nnc2cc(C)cc(C)c21)c1ccccc1`, `CCCC1=C(C(=O)OCC)C(c2ccccc2Cl)c2cn(C)nc2N1` (stereo not drawn) is higher in melting point: 90 °C for the first, 150 to 151 °C for the second.

Compared with `CC1(C)OC(c2ccc(S(C)(=O)=O)cc2)=C(c2cccc3ccccc23)C1=O`, `COc1ccc(N(C(C)C)S(=O)(=O)c2ccc(C)cc2)c([N+](=O)[O-])c1` is lower in melting point: 194 to 195 °C for the first, 148 to 150 °C for the second.

Compared with `Cc1nc(N2CCN(CC3CC3)C2=O)sc1C(=O)NCc1ccncc1`, `CCOC(=O)c1c(N2CCN(C(=O)c3cccs3)CC2)c2cccnc2n(C)c1=O` is lower in melting point: greater than 200 °C for the first, 164 °C for the second.

First: CCOc1ccc(C2=NNC(=O)CC2)c(OCC)c1
Second: CCOc1cc(OCC(=O)O)cc2c1C(=O)N(COC(=O)c1c(Cl)cccc1Cl)S2(=O)=O
The melting point of the first is lower: 148 to 150 °C for the first, 179 to 180 °C for the second.

First: Nc1cc(-c2ccnc3c(C(=O)c4cccs4)cnn23)cs1
Second: CC1=NN(c2cc(-c3ccnc(Nc4cccc(Cl)c4)n3)ccn2)C(=O)C1
The melting point of the first is higher: 174 to 176 °C for the first, 149 to 150 °C for the second.

First: CC(=O)NN1C(=O)c2cc3ccc4c(c3c(-c3ccc5c(c3)OCO5)c2C1=O)OCO4
Second: CC(=O)Oc1cc2c(cc1C(C)(C)C)OC(C)(COc1ccc([N+](=O)[O-])cc1)CC2=O (stereo not drawn)
The melting point of the first is higher: 281 to 283 °C for the first, 82 to 84 °C for the second.

Going from `COc1cccc(Nc2ccnc(Nc3cc(OC)c(OC)c(OC)c3)n2)c1` to `CCCN(c1nc(-c2ccc(OC)cc2Cl)c(C)s1)c1cc(N)ccc1OC`, the melting point rises from 78 °C to 89 °C.

First: CCCC(=O)Nc1cc(C(=O)Nc2cc(C(=O)Nc3ccc(O)cc3CCBr)n(C)c2)n(C)c1
Second: CC(NC(=O)Cc1cc(F)cc(F)c1)C(=O)NC1C(=O)NCc2cc(F)ccc21 (stereo not drawn)
The melting point of the first is lower: 138 to 150 °C for the first, 195 to 200 °C for the second.

First: CNC1=NN(C(=O)c2ccccc2C(F)(F)F)C(C)(C)S1
Second: COC(=O)c1cc(C(=O)OC)cc(S(=O)(=O)Nc2ccc(F)cc2C(F)(F)F)c1
The melting point of the first is higher: 164 to 169 °C for the first, 142 to 150 °C for the second.

Compared with `COc1ccc2c(c1)CCC1CCNC(=O)C(CCN3CCCCC3)=C21` (stereo not drawn), `COc1ccc2c(c1)CCC1C2CCC2(C)C(NCCCCCCN)CCC12` (stereo not drawn) is lower in melting point: 125 to 128 °C for the first, 93 to 94 °C for the second.

First: COC(C(=O)O)c1nn(-c2ccc(Br)cc2)c2c1CCCC2 (stereo not drawn)
Second: O=C1CCN(c2ccc(C(=O)O)cc2)CCN1
The melting point of the first is lower: 123 °C for the first, 285 to 286 °C for the second.

Compared with `COC(=O)c1cccc2c(Cl)c(OC)ccc12`, `O=C(O)c1cccc2c1CCc1cccc(O)c1S2` is higher in melting point: 125 °C for the first, 171 to 173 °C for the second.

Compared with `CC(C)(C)N(N=O)C1CCCCC1`, `CC(C)(C)OC(=O)[C@@H]1CCCN1C(=O)Cl` is higher in melting point: 87 °C for the first, 89 to 92 °C for the second.

First: O=S(=O)(Nc1ccc(C(O)(C(F)(F)F)C(F)(F)F)cc1)c1ccccc1
Second: NS(=O)(=O)c1ccc(NC(=O)Nc2cccc([N+](=O)[O-])c2)cc1
The melting point of the first is lower: 117 to 118 °C for the first, 246 to 248 °C for the second.

Compared with `CCCCNc1nc(C)c(C(=O)c2ccc(N)c([N+](=O)[O-])c2)s1`, `CCOC(=O)[C@@H](C)OC(=O)c1ccc([N+](=O)[O-])cc1` is lower in melting point: 200 to 205 °C for the first, 42 to 43 °C for the second.

Compared with `COc1cc(/C=C/C(=O)CC(=O)C2CC2)ccc1O`, `CCOC(=O)C=Cc1ccc(C=Cc2ccc(Br)cc2)cc1` is higher in melting point: 74.5 to 79 °C for the first, 167 °C for the second.

Compared with `CN1C(=O)CCC2=C1CCc1cccc(F)c12`, `CN1CCN(c2ccccc2CC2CCN(c3ccc(F)c(F)c3)C2=O)CC1` (stereo not drawn) is higher in melting point: 75 to 76 °C for the first, 130 to 131 °C for the second.

First: CN(c1nc(N)no1)c1c(Cl)cccc1Cl
Second: CCOc1nn(-c2c(Cl)cc(C(F)(F)F)cc2Cl)c(N)c1-c1cccc(C(F)(F)F)c1
The melting point of the first is higher: 177 to 178 °C for the first, 77 to 78 °C for the second.

First: CSCCC(NC(=O)C(CCCCNC(=O)OC(C)(C)C)NC(=O)C(Cc1ccc(O)cc1)NC(=O)C1CCCN1)C(=O)NN (stereo not drawn) (H-PYK(Boc)M-NHNH2; configuration not given here)
Second: CSc1ccc(C)c2onc(OCCNC(=O)OC(C)(C)C)c12
The melting point of the first is higher: 206 to 207 °C for the first, 85 to 86 °C for the second.

Compared with `CCC(=O)NC1(c2ccc(C(C)C)cc2OC(=O)CC)C(=O)c2ccccc2C1=O`, `CCCC1(C(=O)O)c2ccccc2-c2ccccc21` is lower in melting point: 173 to 175 °C for the first, 120 to 122 °C for the second.

First: Oc1ccc(N2CCN(c3ccc4ccccc4n3)CC2)cc1
Second: O=C(Oc1ccccc1)N1CCC(c2nn(C(=O)c3ccccc3)c3cc(F)ccc23)CC1
The melting point of the first is higher: 198 °C for the first, 137 to 139 °C for the second.

First: CC#CCOc1ccc(S(=O)(=O)C2(C(=O)NO)CCN(Cc3cccnc3)CC2)cc1
Second: CC(=O)Nc1ccc(S(=O)(=O)N2CCCCC2)cc1
The melting point of the first is lower: 115 °C for the first, 137 to 139 °C for the second.

First: CC(C)c1[nH]nc2c1C(=O)c1c(NC(=O)NN3CCN(C)CC3)cccc1-2
Second: CC1CCN(c2cc3nc(C(C)(C)C)sc3cc2NC(=S)N2CCN(C)CC2)CC1
The melting point of the first is higher: 231 to 233 °C for the first, 192 to 195 °C for the second.

First: CC(=O)O[C@H]1CCNC1=O
Second: O=C1NCCC[C@@H]1NS(=O)(=O)c1cccc(F)c1
The melting point of the first is lower: 85.5 to 87 °C for the first, 159 to 160 °C for the second.

First: CCOC(=O)c1sc(=O)[nH]c1C(F)(F)C(F)(F)F
Second: CCOC(=O)CC[C@H](NC(=O)c1cc(CCCc2coc3nc(N)nc(N)c23)cs1)C(=O)OCC
The melting point of the first is higher: 95 to 97 °C for the first, 79 to 80 °C for the second.

Compared with `CC(O)c1ccc(C(C)(C)C)cc1` (single isomer, unassigned; (+)), `COc1ccc(CN(C(=O)C2CCOc3c(O)cccc32)c2ccc(C(C)C)cc2)cn1` (stereo not drawn) is higher in melting point: 85 °C for the first, 141 °C for the second.

Compared with `CCCC1=C(C#N)C(c2ccccc2Cl)c2c[nH]nc2N1` (stereo not drawn), `Nc1c(Cl)ncnc1NCCc1ccccc1` is lower in melting point: 248 °C for the first, 156 to 157 °C for the second.

First: Cc1ccc2c(n1)NC(C)C(=O)N2 (racemic)
Second: COc1ccc2nc3[nH]nc(N)c3cc2c1
The melting point of the first is lower: 203 to 205 °C for the first, greater than 300 °C for the second.

Compared with `CSc1ccc2c(SCc3ccc(N(CCO)CCO)cc3)ccnc2c1`, `OCCN(CCO)c1cc(-c2ccccn2)nc(-c2ccccn2)c1` is higher in melting point: 162 to 165 °C for the first, 171 to 172 °C for the second.

First: O=C(O)c1cc2c(c(O)c1Br)OCO2
Second: O=C(O)c1ccc2c(c1)C(C(Cl)Cl)OC(C(Cl)(Cl)Cl)O2 (stereo not drawn)
The melting point of the first is lower: 196 to 205 °C for the first, 209 °C for the second.

First: CCCCCCc1cnc(-c2ccc(OC[C@H]3CC[C@H](CCCC)CC3)cc2)nc1
Second: CCN(CC)CCn1sc2nc(-c3ccccc3)ncc2c1=O
The melting point of the first is lower: 99 °C for the first, 106 to 107 °C for the second.

Compared with `O=c1[nH]c(=O)n(C2OC(CO)C(O)C2F)cc1C=CBr` (stereo not drawn), `NC(=O)C1Cc2c([nH]c3ccccc23)C(c2ccccc2)N1C(=O)CCl` (stereo not drawn) is higher in melting point: 80 to 83 °C for the first, 180 to 182 °C for the second.

First: O=C1CCC(NC(=O)OCc2ccccc2)(C(=O)OCc2ccc([N+](=O)[O-])cc2)O1 (stereo not drawn)
Second: Nc1cc(C(=O)O)cc(NCc2ccccc2)c1-c1ccccc1
The melting point of the first is lower: 127 to 128 °C for the first, 179 to 181 °C for the second.

First: Nc1nc2ccccc2c2c1nc(CO)n2Cc1cc(-c2ccc(F)cc2)no1
Second: Nc1nc2c(c(Nc3ccc(Cl)cc3)n1)-c1ccccc1C2
The melting point of the first is higher: 262 to 263 °C for the first, 216 to 217 °C for the second.

First: CC(C)c1n[nH]c2c(NCc3ccccc3Br)ncnc12
Second: CC=CC=CC(=O)Nc1ccc2ncnc(Nc3cccc(Br)c3)c2c1
The melting point of the first is lower: 194 to 196 °C for the first, 258 to 260 °C for the second.

First: COc1ccc(CCC(=O)Nc2c(C)c(C)c3c(c2C)[C@@H](c2ccc(C)cc2)C(C)(C)O3)cc1
Second: CCc1[nH]n(-c2c(Cl)cc(Cl)cc2Cl)c2nc(Cc3ccc(-c4ccc(OC)cc4)cc3)nc(=O)c1-2
The melting point of the first is lower: 170 to 172 °C for the first, 275 to 277 °C for the second.

Compared with `CCCN1CC(NS(=O)(=O)N(CC)CC)CC2c3cccc4[nH]cc(c34)CC21` (stereo not drawn), `Cc1ccc(S(=O)(=O)OCC2CCc3scnc3C2)cc1` (stereo not drawn) is lower in melting point: 160 to 162 °C for the first, 87 to 88 °C for the second.

Compared with `CN[C@@]1(C)CCN(c2c(-c3cccc(F)c3)c(C)c(C#N)c3nc(C(=O)N(C)C)oc23)C1`, `CN(C)C(=O)C1=Cc2cccc(OC[C@@H]3CO3)c2OC1` is lower in melting point: 178 to 180 °C for the first, 115 to 117 °C for the second.

First: CCCCCCCCCCN=C1SC(=CC(=O)O)C(=O)N1CCCCCCCCCC
Second: O=C(O)COc1cc(F)cc(F)c1C(=O)NCc1ccc(Br)cc1F
The melting point of the first is lower: 68 to 69 °C for the first, 158 to 159 °C for the second.

First: Cc1cc(-c2nncc3c(C(C)(C)C)c(OCc4cccnc4)nn23)no1
Second: CNC(=O)N1CCc2[nH]cnc2C1
The melting point of the first is lower: 139 to 141 °C for the first, 213 °C for the second.
